From US10543194B2, “Organic compounds” (INTRA-CELLULAR THERAPIES, INC., priority 2014, dated 2020) come the findings set out here.

Data set [1] can be described thus: Pharmacokinetic study in mice (plasma and brain availability). Format: in vivo. As to conditions: 10 mg/kg PO, compared to Bay 60-7550. As for the experimental part: Mice are given a single oral dose of the compound of Example 22 (10 mg/kg, PO) and plasma and brain availability are measured (0.25-4 h) using HPLC and LC-MS using methods analogous to those described in Zhao et al., J. Chromatogr. B. Analyt. Technol. Biomed. Life Sci. (2005) 819(1):73-80 and Appels, N. M., et al., Rapid Commun. Mass Spec. 2005. 19(15): p. 2187-92.

Data set [2] has as its system cGMP levels in the striatum. The data set is described as follows: Measurements of cGMP in mouse brain in vivo. As to conditions: mice, 3 mg/kg i.p., 15, 30 or 60 min, compared to Bay 60-7550 (3 mg/kg). As for the experimental part:
Striatum are dissected from the mouse brains and assayed for levels of cGMP. Trichloroacetic acid (TCA) is added to tissue samples for a final concentration of 5% TCA and the tissue is immediately sonicated in solution and stored on ice. The sonicated sample is centrifuged at 15,000×g for 20 min at 4° C. to remove the precipitated protein. To extract the TCA, the sample is washed three times in water saturated ether. The samples are then dried under vacuum (Speedvac, Savant SPD111V) at room temperature and re-suspended in 100 μL EIA buffer. […] Each sample is tested in duplicate in precoated assay plates alongside the 8-point cGMP standard dilutions. In addition, blank, maximum binding (B0) and non-specific binding wells are included. To all wells containing 50 μL sample or standard, equal volumes of AChE-linked cGMP and cGMP antibody are added. The plate is incubated at 4° C. for 18 hours. The wells are then washed 5 times with wash buffer. Detection reagent containing acetylthiocholine and […] is added and the plate is incubated at room temperature until the OD of the B0 wells is at least 0.5 as recorded by the SoftMax 4.8 software (Molecular Devices, Sunnyvale, Calif.). Each data point is converted to % B/B0 (100*[sample or standard OD−average non-specific binding)/(average B0−average non-specific binding)]). […]

Turning to `COc1ccc2[nH]c(=O)c3c(C)nn(-c4cc(OCC5CCC5)ccc4Cl)c3c2n1` [Example 22, 1-(2-Chloro-5-(cyclobutylmethoxy)phenyl)-8-methoxy-3-methyl-1H-pyrazolo[4,3-c][1,5]naphthyridin-4(5H)-one], the brain access entry in data set [1] is recorded as “good brain access”. Further, the “cGMP levels in the striatum” value in data set [2] is given as “increases cGMP levels in the striatum”.
